From US20250230138A1, “COMPOUNDS HAVING A T-STRUCTURE FORMED BY AT LEAST FOUR CYCLES FOR USE IN THE TREATMENT OF CANCER AND OTHER INDICATIONS” (TheRas, Inc., priority 2022, published 2025)
Like-named read-outs stand apart in the source and are kept apart here.

Assays:
pAKT in BT474 cells = experiment: Cell-based pAKT HTRF assay in BT474 cells; conditions: BT474 cells, 4 hr incubation, Compounds 10-999, read-out: pAKT inhibition IC50 in BT474 cells
How it was run: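 pAKT was measured by HTRF after a 4 hr compound exposure in BT474 cells (DMEM, 10% FBS, 0.25% DMSO), using 9 concentrations from 3 μM in 3-fold steps. Cell lysates were incubated with the Eu cryptate/d2 antibody pair at room temperature for 4 to 24 h. The plate was then read at 320 nm excitation and 615 nm emission.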

[1] = target: Cys242 in human PIK3CA (157-299) (Homo sapiens (Human), UniProt P42336); experiment: Covalent modification assay using MALDI-TOF MS; format: biochemical; conditions: 4 h reaction time point; 3.33 μM protein target, 1:7.5 protein to compound ratio (compounds 1-852)
Sequence of Cys242 in human PIK3CA (157-299) (P42336 157-299): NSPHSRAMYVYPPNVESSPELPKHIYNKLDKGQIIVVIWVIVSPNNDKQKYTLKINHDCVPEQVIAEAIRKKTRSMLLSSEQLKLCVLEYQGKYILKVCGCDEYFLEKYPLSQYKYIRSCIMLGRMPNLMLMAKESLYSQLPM
How it was run: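 PIK3CA (157-299), 3.33 or 1 μM in 20 mM HEPES, 150 mM NaCl, 2 mM MgCl2, pH 7.3, was incubated with compound at room temperature in the dark for 15 min, 30 min, 2 h or 4 h. Linear MALDI-TOF read-out; % modification = adduct peak height over summed heights of all protein species.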

Row | Structure (SMILES) | IC50 (pAKT in BT474 cells) | IC50 (pAKT in BT474 cells; Homo sapiens, BT-474) | % of modification [1]
1 | C=CC(=O)N1CCn2nc(-c3nc(-c4cnn(C)c4)c4ccsc4c3-c3ccc(Cl)cc3F)cc2C1 [Compound 284] | 100 to 1000 nM | – | A (percent of modification of PIK3CA protein ≥75%)
2 | CC(C)Oc1cc(F)ccc1-c1c(-c2cc3n(n2)CCN(C(=O)/C=C/CN(C)C)C3)nc(-c2ccc3c(c2)CCNC3=O)c2ccsc12 [Compound 285] | 100 to 1000 nM | – | B (50%<percent of modification <75%)
3 | C=CC(=O)N1CCn2nc(-c3nc(N4CCS(=O)(=O)CC4)c4ccsc4c3-c3ccc(F)cc3OC(C)C)cc2C1 [Compound 286] | > 3000 nM | – | A (percent of modification of PIK3CA protein ≥75%)
4 | C=CC(=O)N1CCn2nc(-c3nc(-c4ccc5c(c4)CNC5=O)c4ccsc4c3-c3ccc(F)cc3OC(C)C)cc2C1 [Compound 287] | < 100 nM | – | A (percent of modification of PIK3CA protein ≥75%)
5 | C=CC(=O)N1CCn2nc(-c3nc(-c4cnn(C)c4)c4ccsc4c3-c3c(F)cc(F)cc3OC(C)C)cc2C1 [Compound 289] | < 100 nM | – | A (percent of modification of PIK3CA protein ≥75%)
6 | C=CC(=O)N1CCn2nc(-c3nc(-c4cnn(C)c4)c4ccsc4c3-c3ccc(F)cc3Cl)cc2C1 [Compound 291] | < 100 nM | – | A (percent of modification of PIK3CA protein ≥75%)
7 | C=CC(=O)N1CCn2nc(-c3nc(-c4cnn(C)c4)c4ccsc4c3-c3c(F)cc(F)cc3F)cc2C1 [Compound 292] | 100 to 1000 nM | – | A (percent of modification of PIK3CA protein ≥75%)
8 | C=C(F)C(=O)N1CCn2nc(-c3nc(-c4cnn(C)c4)c4ccsc4c3-c3ccc(F)cc3OC(C)C)cc2C1 [Compound 295] | 100 to 1000 nM | – | B (50%<percent of modification <75%)
9 | C=CC(=O)N1CC(n2cc(-c3nc(C4CCN(S(C)(=O)=O)CC4)c4ccsc4c3-c3ccc(F)cc3OC)cn2)C1 [Compound 296] | 1000 to 3000 nM | – | B (50%<percent of modification <75%)
10 | C=CC(=O)N1CC(n2cc(-c3nc(C4CCN(C(C)=O)CC4)c4ccsc4c3-c3ccc(F)cc3OC)cn2)C1 [Compound 297] | 1000 to 3000 nM | – | B (50%<percent of modification <75%)
11 | C=CC(=O)N1CC(n2cc(-c3nc(C4=CCN(S(C)(=O)=O)CC4)c4ccsc4c3-c3ccc(F)cc3OC)cn2)C1 [Compound 299] | 100 to 1000 nM | – | A (percent of modification of PIK3CA protein ≥75%)
12 | C=CC(=O)N1CCn2nc(-c3nc(-c4ccc5c(c4)CCNC5=O)c4ccsc4c3-c3ccc(F)cc3OC3CC3)cc2C1 [Compound 302] | < 100 nM | – | A (percent of modification of PIK3CA protein ≥75%)
13 | C=C(F)C(=O)N1CCn2nc(-c3nc(-c4ccc5c(c4)CCN(C)C5)c4ccsc4c3-c3ccc(F)cc3OCC)cc2C1 [Compound 305] | 100 to 1000 nM | – | B (50%<percent of modification <75%)
14 | C=C(F)C(=O)N1CCn2nc(-c3nc(-c4cnc5c(c4)CN(C)CC5)c4ccsc4c3-c3ccc(F)cc3OC(C)C)cc2C1 [Compound 306] | < 100 nM | – | B (50%<percent of modification <75%)
15 | C=C(F)C(=O)N1CCn2nc(-c3nc(-c4ccc(=O)[nH]c4)c4ccsc4c3-c3ccc(F)cc3OC(C)C)cc2C1 [Compound 307] | 100 to 1000 nM | – | A (percent of modification of PIK3CA protein ≥75%)
16 | C=C(F)C(=O)N1CCn2nc(-c3nc(-c4ccc5c(c4)[C@@H](O)CC5)c4ccsc4c3-c3ccc(F)cc3OC(C)C)cc2C1 [Compound 308] | 100 to 1000 nM | – | A (percent of modification of PIK3CA protein ≥75%)
17 | C=CC(=O)N1CCc2nc(-c3nc(-c4cnc5c(c4)CN(C)CC5)c4ccsc4c3-c3c(F)cc(F)cc3OC(C)C)sc2C1 [Compound 309] | < 100 nM | – | A (percent of modification of PIK3CA protein ≥75%)
18 | C=C(F)C(=O)N1CCn2nc(-c3nc(-c4cnc5c(c4)CN(C)CC5)c4ccsc4c3-c3c(F)cc(F)cc3OC(C)C)nc2C1 [Compound 310] | < 100 nM | – | A (percent of modification of PIK3CA protein ≥75%)
19 | C=CC(=O)N1CCc2nc(-c3nc(-c4ccc5c(c4)CCN(C)C5)c4ccsc4c3-c3c(F)cc(F)cc3OC(C)C)sc2C1 [Compound 312] | < 100 nM | – | A (percent of modification of PIK3CA protein ≥75%)
20 | C=CC(=O)N1CCn2nc(-c3nc(-c4cnn(C)c4)c4ccsc4c3-c3ccc(F)cc3OC(C)C)c(OC)c2C1 [Compound 313] | < 100 nM | – | A (percent of modification of PIK3CA protein ≥75%)
21 | C=C(F)C(=O)N1CCn2nc(-c3nc(-c4ccc5c(c4)CCN(C)C5)c4ccsc4c3-c3c(F)cc(F)cc3OC(C)C)nc2C1 [Compound 314] | < 100 nM | – | A (percent of modification of PIK3CA protein ≥75%)
22 | C=CC(=O)N1CCc2ncc(-c3nc(-c4ccc5c(c4)CNC5=O)c4ccsc4c3-c3ccc(F)cc3OC(C)C)cc2C1 [Compound 316] | < 100 nM | – | A (percent of modification of PIK3CA protein ≥75%)
23 | C=CC(=O)N1CC[C@H](n2ccc(-c3nc(-c4cnn(C)c4)c4ccsc4c3-c3ccc(F)cc3OC(C)C)n2)C1 [Compound 318] | < 100 nM | – | A (percent of modification of PIK3CA protein ≥75%)
24 | C=CC(=O)N1CCn2nc(-c3nc(-c4cnn(C)c4)c4ccsc4c3-c3ccc(F)cc3OC(C)C)c(C)c2C1 [Compound 320] | < 100 nM | – | A (percent of modification of PIK3CA protein ≥75%)
25 | C=C(F)C(=O)N1CCn2nc(-c3nc(-c4ccc5c(c4)CNC5=O)c4ccsc4c3-c3c(F)cc(F)cc3OCC)cc2C1 [Compound 321] | < 100 nM | – | B (50%<percent of modification <75%)
26 | C=CC(=O)N1CCn2nc(-c3nc(-c4cnn(C)c4)ccc3-c3ccc(F)cc3OCCOC)cc2C1 [Compound 322, 1-[2-[3-[4-fluoro-2-(2-methoxyethoxy)phenyl]-6-(1-methylpyrazol-4-yl)-2-pyridyl]-6,7-dihydro-4H-pyrazolo[1,5-a]pyrazin-5-yl]prop-2-en-1-one] | – | > 3000 nM | C (25%≤percent of modification <50%)

Now from value to molecule, other results behind:

Row | IC50 (pAKT in BT474 cells) | IC50 (pAKT in BT474 cells; Homo sapiens, BT-474) | Structure (SMILES) | % of modification [1]
27 | < 100 nM | – | C=CC(=O)N1CC(n2cc(-c3nc(-c4ccc5c(c4)CNC5=O)c4ccsc4c3-c3ccc(F)cc3OC)cn2)C1 [Compound 282] | A (percent of modification of PIK3CA protein ≥75%)
28 | < 100 nM | – | C=CC(=O)N1CCn2nc(-c3nc(-c4cnc5c(c4)CN(C)CC5)c4ccsc4c3-c3ccc(F)cc3OC(C)C)cc2C1 [Compound 283] | A (percent of modification of PIK3CA protein ≥75%)
29 | < 100 nM | – | C=CC(=O)N1CCn2nc(-c3nc(-c4cnc5c(c4)CN(C)CC5)c4ccsc4c3-c3ccc(F)cc3OC)cc2C1 [Compound 288] | A (percent of modification of PIK3CA protein ≥75%)
30 | < 100 nM | – | C=C(F)C(=O)N1CCn2nc(-c3nc(-c4ccc5c(c4)CCN(C)C5)c4ccsc4c3-c3ccc(F)cc3OC(C)C)cc2C1 [Compound 293] | A (percent of modification of PIK3CA protein ≥75%)
31 | < 100 nM | – | C=C(F)C(=O)N1CCn2nc(-c3nc(-c4ccc5c(c4)CCN(C(C)C)C5)c4ccsc4c3-c3ccc(F)cc3OC(C)C)cc2C1 [Compound 294] | A (percent of modification of PIK3CA protein ≥75%)
32 | 100 to 1000 nM | – | C=CC(=O)N1CC(n2cc(-c3nc(C4=CCN(C(C)=O)CC4)c4ccsc4c3-c3ccc(F)cc3OC)cn2)C1 [Compound 298] | A (percent of modification of PIK3CA protein ≥75%)
33 | 100 to 1000 nM | – | C=C(F)C(=O)N1CCn2nc(-c3nc(-c4cncc(C#N)c4)c4ccsc4c3-c3ccc(F)cc3OC(C)C)cc2C1 [Compound 303] | A (percent of modification of PIK3CA protein ≥75%)
34 | 100 to 1000 nM | – | C=C(F)C(=O)N1CCn2nc(-c3nc(-c4ccc5c(c4)CCNC5=O)c4ccsc4c3-c3ccc(F)cc3OCC)cc2C1 [Compound 304] | B (50%<percent of modification <75%)
35 | – | < 100 nM | C=CC(=O)N1CCc2nc(-c3nc(-c4ccc5c(c4)CNC5=O)c4ccsc4c3-c3c(F)cc(F)cc3OC(C)C)sc2C1 [Compound 311, 5-[7-(2,4-difluoro-6-isopropoxy-phenyl)-6-(5-prop-2-enoyl-6,7-dihydro-4H-thiazolo[5,4-c]pyridin-2-yl)thieno[3,2-c]pyridin-4-yl]isoindolin-1-one] | A (percent of modification of PIK3CA protein ≥75%)
36 | < 100 nM | – | C=C(F)C(=O)N1CCn2nc(-c3nc(-c4ccc5c(c4)CNC5=O)c4ccsc4c3-c3c(F)cc(F)cc3OC(C)C)nc2C1 [Compound 315] | A (percent of modification of PIK3CA protein ≥75%)
37 | – | < 100 nM | C=CC(=O)N1CCn2nc(-c3nc(-n4cc(C)cn4)c4ccsc4c3-c3ccc(F)cc3OC(C)C)cc2C1 [Compound 317, 1-[2-[7-(4-fluoro-2-isopropoxy-phenyl)-4-(4-methylpyrazol-1-yl)thieno[3,2-c]pyridin-6-yl]-6,7-dihydro-4H-pyrazolo[1,5-a]pyrazin-5-yl]prop-2-en-1-one] | A (percent of modification of PIK3CA protein ≥75%)
38 | < 100 nM | – | C=CC(=O)N1CCc2ncc(-c3nc(-c4cnc5c(c4)CN(C)CC5)c4ccsc4c3-c3ccc(F)cc3OC(C)C)cc2C1 [Compound 319] | A (percent of modification of PIK3CA protein ≥75%)
